Reference: patent publication US20170275298A1, “INHIBITORS OF THE RENAL OUTER MEDULLARY POTASSIUM CHANNEL” (Merck Sharp & Dohme Corp., priority 2014, published 2017)

target: T1, hROMK (hKir1.1) (Homo sapiens, UniProt P48048); experiment: Thallium Flux Assay (ROMK channel functional thallium flux assay); assay type: cell-based; details: HEK293 cells stably expressing hROMK (hKir1.1); FluxOR thallium flux, FLIPR-Tetra, 30 min compound incubation; read-out: ROMK TI IC50
T1 construct: expressed in transfected cells
T1 sequence (P48048 1-391): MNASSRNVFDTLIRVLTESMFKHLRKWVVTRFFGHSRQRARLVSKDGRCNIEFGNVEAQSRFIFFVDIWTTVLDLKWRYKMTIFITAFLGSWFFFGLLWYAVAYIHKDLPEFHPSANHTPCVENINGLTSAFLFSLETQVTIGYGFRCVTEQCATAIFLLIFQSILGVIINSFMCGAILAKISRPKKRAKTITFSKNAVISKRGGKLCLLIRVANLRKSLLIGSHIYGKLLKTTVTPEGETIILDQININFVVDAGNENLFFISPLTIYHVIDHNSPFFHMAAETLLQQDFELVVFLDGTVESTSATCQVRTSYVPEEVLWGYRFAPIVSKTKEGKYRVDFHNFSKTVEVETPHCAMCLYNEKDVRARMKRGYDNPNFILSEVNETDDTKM
Description: The following Thallium Flux Assay was performed on each of the final product compounds in the Examples.
HEK293 cells stably expressing hROMK (hKir1.1) were grown at 37° C. in a 10% CO2 humidified incubator in complete growth media: Dulbecco's Modified Eagle Medium supplemented with non-essential amino acids, Penicillin/Streptomycin/Glutamine, G418 and FBS. At >80% confluency, the media was aspirated from the flask and rinsed with 10 mL calcium/magnesium-free PBS. […] To dislodge the cell, the side of the flask was gently banged with one's hand. The cells completely titrated and then the cells were transferred to 25 mL complete media, centrifuged at 1,500 rpm for 6 min followed by resuspension in complete growth media and determine cell concentration. […] Under ideal growth conditions and appropriate tissue culture practices, this cell line is stable for 40-45 passages.
• FluxOR™ Reagent (Component A) • FluxOR™ Assay Buffer (Component B)—10× Concentrate • PowerLoad™ Concentrate (Component C)—100× Concentrate • Probenecid (Component D)—Lyophilized sample is kept at −20° C. Water soluble, 100× after solubilization in 1 mL water. […] Store at 4° C. • Thallium sulfate (Tl2SO4) Concentrate (Component G)—50 mM in water. Store at 4° C. • DMSO (dimethyl sulfoxide, Component H)—1 mL (100%)
Can be stored at room temperature • Stimulant Buffer (prepared at 5× final concentration in 1×FluxOR™ Chloride-Free Buffer): 7.5 mM thallium sulfate and 0.75 mM potassium sulfate (to give a final assay concentration of 3 mM Thallium/0.3 mM potassium). Store at 4° C. when not in use. If kept sterile, this solution is good for months.
The ROMK channel functional thallium flux assay was performed in 384 wells, using the FLIPR-Tetra instrument. HEK-hKir1.1 cells were seeded in Poly-D-Lysine microplates and kept in a 37° C.-10% CO2 incubator overnight. On the day of the experiment, the growth media was replaced with the FluxOR™ reagent loading buffer and incubated, protected from light, at ambient temperature (23-25° C.) for 90 min. The loading buffer was replaced with assay buffer±test compound followed by 30 min incubation at ambient temperature, where the thallium/potassium stimulant was added to the microplate.
1. Seed HEK-hKir1.1 cells (50 μl at 20,000 cells/well) in 384-well PDL coated Microplates 2. Allow cells to adhere overnight in humidified 37° C./10% CO2 incubator 3. Completely remove cell growth media from microplate and replace with 25 μl loading buffer 4. Incubate Microplate at room temperature, protected form light, for 90 min 5. Remove loading buffer and replace with 25 μl 1× Assay Buffer±test compound. 6. Incubate microplate at room temperature, protected from light, for 30 min 7. […] Excitation=400 nm, Emission=460 & 580 nm. Collect data for ˜10 min.
The fluorescence intensity of wells containing 3 μM of a standard control ROMK inhibitor of the present invention was used to define the ROMK-sensitive component of thallium flux. Fluorescence in the presence of test compounds was normalized to control values to provide % fluorescence change.

SMILES	IC50 [nM]
Cc1c([C@H](O)CN2CCC3(CC2)CCN(c2ccc(=O)n(C)n2)C3=O)ccc2c1COC2=O (single isomer, unassigned) [Example 57]	252
[2H]C([2H])(N1CCC2(CCN(c3ccc(=O)n(C)n3)C2=O)CC1)[C@]([2H])(O)c1ccc2c(c1C)COC2=O (single isomer, unassigned) [Example 58]	36
[2H]C([2H])(N1CCC2(CCN(c3ccc(=O)n(C)n3)C2=O)CC1)[C@@]([2H])(O)c1ccc2c(c1C)COC2=O (single isomer, unassigned) [Example 59]	462
Cc1nsc(N2CCC3(CCN(C[C@H](O)c4ccc5c(c4C)COC5=O)CC3)C2)n1 [Example 1, 5-{(1R)-1-hydroxy-2-[2-(3-methyl-1,2,4-thiadiazol-5-yl)-2,8-diazaspiro[4.5]dec-8-yl]ethyl}-4-methyl-2-benzofuran-1(3H)-one]	251
Cc1c([C@@H](O)CN2CCC3(CC2)CCN(c2nc(Cl)cs2)C3)ccc2c1COC2=O [Example 2, 5-{(1R)-2-[2-(4-chloro-1,3-thiazol-2-yl)-2,8-diazaspiro[4.5]dec-8-yl]-1-hydroxyethyl}-4-methyl-2-benzofuran-1(3H)-one]	935
CC(=O)OCc1nsc(N2CCC3(CCN(C[C@H](O)c4ccc5c(c4C)COC5=O)CC3)C2)n1 [Example 3, (5-{8-[(2R)-2-hydroxy-2-(4-methyl-1-oxo-1,3-dihydro-2-benzofuran-5-yl)ethyl]-2,8-diazaspiro[4.5]dec-2-yl}-1,2,4-thiadiazol-3-yl)methyl acetate]	100
Cc1c([C@@H](O)CN2CCC3(CC2)CCN(c2nsc(Cl)n2)C3)ccc2c1COC2=O [Example 4, (R)-5-(2-(2-(5-chloro-1,2,4-thiadiazol-3-yl)-2,8-diazaspiro[4.5]decan-8-yl)-1-hydroxyethyl)-4-methylisobenzofuran-1(3H)-one]	45.1
Cc1c([C@@H](O)CN2CCC3(CC2)CCN(c2nc(Cl)ns2)C3)ccc2c1COC2=O [Example 5, (R)-5-(2-(2-(3-chloro-1,2,4-thiadiazol-5-yl)-2,8-diazaspiro[4.5]decan-8-yl)-1-hydroxyethyl)-4-methylisobenzofuran-1(3H)-one]	64.8
COc1ccc(N2CCC3(CCN(C[C@H](O)c4cc(OC)c(C#N)cn4)CC3)C2)nn1 [Example 6, (S)-6-(1-hydroxy-2-(2-(6-methoxypyridazin-3-yl)-2,8-diazaspiro[4.5]decan-8-yl)ethyl)-4-methoxynicotinonitrile]	476
Cc1c([C@@H](O)CN2CCC3(CC2)CCN(c2ccns2)C3)ccc2c1COC2=O [Example 7, (R)-5-(1-hydroxy-2-(2-(isothiazol-5-yl)-2,8-diazaspiro[4.5]decan-8-yl)ethyl)-4-methylisobenzofuran-1(3H)-one]	149
Cc1c([C@@H](O)CN2CCC3(CC2)CCN(c2ncns2)C3)ccc2c1COC2=O [Example 8, (R)-5-(2-(2-(1,2,4-thiadiazol-5-yl)-2,8-diazaspiro[4.5]decan-8-yl)-1-hydroxyethyl)-4-methylisobenzofuran-1(3H)-one]	526
Cc1c([C@@H](O)CN2CCC3(CC2)CCN(c2cc(C(F)(F)F)ncn2)C3)ccc2c1COC2=O [Example 9, (R)-5-(1-hydroxy-2-(2-(6-(trifluoromethyl)pyrimidin-4-yl)-2,8-diazaspiro[4.5]decan-8-yl)ethyl)-4-methylisobenzofuran-1(3H)-one]	173
COc1cc(N2CCC3(CCN(C[C@H](O)c4ccc5c(c4C)COC5=O)CC3)C2)nc(OC)n1 [Example 10, (R)-5-(2-(2-(2,6-dimethoxypyrimidin-4-yl)-2,8-diazaspiro[4.5]decan-8-yl)-1-hydroxyethyl)-4-methylisobenzofuran-1(3H)-one]	725
Cc1c([C@@H](O)CN2CCC3(CC2)CCN(c2ccc(=O)n(C)n2)C3)ccc2c1COC2=O [Example 11, (R)-6-(8-(2-hydroxy-2-(4-methyl-1-oxo-1,3-dihydroisobenzofuran-5-yl)ethyl)-2,8-diazaspiro[4.5]decan-2-yl)-2-methylpyridazin-3(2H)-one]	67.6
COc1cc(N2CCC3(CCN(C[C@H](O)c4ccc5c(c4C)COC5=O)CC3)C2)ccn1 [Example 12, (R)-5-(1-hydroxy-2-(2-(2-methoxypyridin-4-yl)-2,8-diazaspiro[4.5]decan-8-yl)ethyl)-4-methylisobenzofuran-1(3H)-one]	962
COc1nsc(N2CCC3(CCN(C[C@H](O)c4ccc5c(c4C)COC5=O)CC3)C2)n1 [Example 13, (R)-5-(1-hydroxy-2-(2-(3-methoxy-1,2,4-thiadiazol-5-yl)-2,8-diazaspiro[4.5]decan-8-yl)ethyl)-4-methylisobenzofuran-1(3H)-one]	336
COc1nccc(N2CCC3(CCN(C[C@H](O)c4ccc5c(c4C)COC5=O)CC3)C2)n1 [Example 14, (R)-5-(1-hydroxy-2-(2-(2-methoxypyrimidin-4-yl)-2,8-diazaspiro[4.5]decan-8-yl)ethyl)-4-methylisobenzofuran-1(3H)-one]	420
COc1ncc(N2CCC3(CCN(C[C@H](O)c4ccc5c(c4C)COC5=O)CC3)C2)cn1 [Example 15, (R)-5-(1-hydroxy-2-(2-(2-methoxypyrimidin-5-yl)-2,8-diazaspiro[4.5]decan-8-yl)ethyl)-4-methylisobenzofuran-1(3H)-one]	284
Cc1c([C@@H](O)CN2CCC3(CC2)CN(c2ccns2)C3)ccc2c1COC2=O [Example 16]	418
Cc1c([C@@H](O)CN2CCC3(CC2)CN(c2ccc(=O)n(C)n2)CCO3)ccc2c1COC2=O [Example 17, (R)-6-(9-(2-hydroxy-2-(4-methyl-1-oxo-1,3-dihydroisobenzofuran-5-yl)ethyl)-1-oxa-4,9-diazaspiro[5.5]undecan-4-yl)-2-methylpyridazin-3(2H)-one]	88.3
Cc1nc(-n2cnnn2)ccc1[C@@H](O)CN1CCC2(CC1)CN(c1ccc(=O)n(C)n1)CCO2 [Example 18, (R)-6-(9-(2-hydroxy-2-(2-methyl-6-(1H-tetrazol-1-yl)pyridin-3-yl)ethyl)-1-oxa-4,9-diazaspiro[5.5]undecan-4-yl)-2-methylpyridazin-3(2H)-one]	376
Cc1cc(-n2cnnn2)ccc1[C@@H](O)CN1CCC2(CC1)CN(c1ccc(=O)n(C)n1)CCO2 [Example 19, (R)-6-(9-(2-hydroxy-2-(2-methyl-4-(1H-tetrazol-1-yl)phenyl)ethyl)-1-oxa-4,9-diazaspiro[5.5]undecan-4-yl)-2-methylpyridazin-3(2H)-one]	540
Cc1c(CCN2CCC3(CC2)CCN(c2ccc(=O)n(C)n2)C3=O)ccc2c1COC2=O [Example 20, 8-(2-(4-methyl-1-oxo-1,3-dihydroisobenzofuran-5-yl)ethyl)-2-(1-methyl-6-oxo-1,6-dihydropyridazin-3-yl)-2,8-diazaspiro[4.5]decan-1-one]	51.2
Cn1nc(N2CCC3(CCN(CCc4ccc(-n5cnnn5)nn4)CC3)C2=O)ccc1=O [Example 21, 8-(2-(6-(1H-tetrazol-1-yl)pyridazin-3-yl)ethyl)-2-(1-methyl-6-oxo-1,6-dihydropyridazin-3-yl)-2,8-diazaspiro[4.5]decan-1-one]	568
Cn1nc(N2CCC3(CCN(CCc4ccc(-n5cnnn5)nc4)CC3)C2=O)ccc1=O [Example 22, 8-(2-(6-(1H-tetrazol-1-yl)pyridin-3-yl)ethyl)-2-(1-methyl-6-oxo-1,6-dihydropyridazin-3-yl)-2,8-diazaspiro[4.5]decan-1-one]	420
